Like-named read-outs stand apart in the source and are kept apart here.
Key:
EV-D68 2A^pro = EV-D68 2A^pro (Enterovirus D68, UniProt A0A097BW19); assay: FRET-based enzymatic assay of EV-D68 2Apro inhibition; assay type: biochemical; conditions: for IC50: read-out: Enzymatic inhibitory activity IC50
Description: (§1) Protein expression and purification. EV-D68 2A^pro gene from strain US/KY/14-18953 was ordered from Genscript (Piscataway, NJ) in pET28b(+) vector with E. coli codon optimization. 2A^pro gene was subcloned into pE-SUMOstar vector according to the manufacturers protocol. Plasmid encoding WT-2A^pro was transformed into BL21(DE3) competent E. coli cells, and a single colony was picked and used to inoculate 10 mL of L.B. grown supplemented with 50 μg/mL kanamycin at 37° C. at 250 rpm. The 10 mL inoculant was added to 1 L of L.B. with 50 μg/mL kanamycin and grown to an OD600 of 0.8-1.0, cooled to 18° C., then induced using 0.5 mM IPTG. Induced cultures were incubated at 18° C. for an additional 24 h, then harvested and resuspended in lysis buffer (25 mM Tris (pH 7.5); 750 mM NaCl, 2 mM DTT with 0.5 mg/mL lysozyme, 0.5 mM PMSF and 0.02 mg/mL DNase I) and lysed with alternating sonication and French press cycles. The cell debris were removed by centrifugation at 12,000×g for 45 min […]. The supernatant was incubated with Ni-NTA resin for over 2 h at 4° C. on a rotator. The Ni-NTA resin was thoroughly washed with 50 mM imidazole in wash buffer (50 mM Tris (pH 7.5), 150 mM NaCl, and 2 mM DTT); for the SUMO-tagged protein, the protein was directly eluted with 300 mM imidazole; for the nontagged 2A^pro Ni-NTA resin was treated with SUMO Protease 1 to remove the SUMO tag, then 2A^pro was washed off from the column with 10 mM imidazole in wash buffer. The imidazole was removed via dialysis or 10 K molecular weight cut-off centrifugal concentrator spin column. The purity of the protein was confirmed with SDS-PAGE. The protein concentration was determined by classic BCA assay using bovine serum albumin as a standard. EV-D68 3C^pro in pET28b(+) vector was expressed as previously described^10.
(§2) Peptide synthesis. The FRET substrate of EV-D68 2A^pro, Dabcyl-KIRIVNT/GPGFGGE-Edans, was synthesized using the Fmoc solid phase synthesis strategy.
(§3) Enzymatic assays. The reaction buffer contains 50 mM Tris (pH7.0), 150 mM NaCl, 10% Glycerol, and 2 mM DTT, and the reaction was carried out at 30° C. in Cytation 5 imaging reader (Fisher Scientific) with EX360/40-EM460/40 filter. Reactions were monitored every 90 sec. […] The reaction was initiated by adding 20 μM of FRET substrate, and the reaction was monitored for 2 hours and initial velocity was calculated for the first 30 minutes via linear regression.

EV-D68 US/MO/14-18947 = assay: CPE assay (neutral red) with EV-D68 US/MO/14-18947 in R.D. cells; assay type: cell-based, Enterovirus D68
Description: Cell lines and viruses. Human rhabdomyosarcoma (R.D., ATCC, CCL-136) cells were maintained at 37° C. in a 5% CO2 atmosphere and cultured in Dulbecco's modified Eagle's medium (DMEM) supplemented with 10% fetal bovine serum (FBS) and 1% penicillin-streptomycin antibiotics. The following reagents were obtained through BEI Resources, NIAID, NIH: Human Enterovirus D68, US/MO/14-18949, NR-49130; Enterovirus D68, US/MO/14-18947, NR-49129; Enterovirus D68, US/IL/14-18952, NR-49131; Enterovirus D68, US/KY/14-18953, NR-49132; Enterovirus D68, US/IL/14-18956, NR-49133.
Antiviral assays. Cells for antiviral assays were seeded and grown overnight at 37° C. in a 5% CO2 atmosphere for ˜90% confluency the next day. For all infections, cells were washed with PBS containing magnesium and calcium and infected with virus diluted in DMEM with 2% FBS and 30 mM MgCl2. Viruses were incubated for at least 1 h at 33° C. in a 5% CO2 atmosphere, followed by the addition of compound as well as 1% penicillin-streptomycin. For CC50 measurements, the experiment was performed similarly but excluded viral infection. For cytopathic effect (CPE) assays, cells were stained with 66 µg/mL neutral red for 2 h and neutral red uptake was measured at absorbance 540 nm using a Multiskan FC Microplate Photometer (ThermoFisher Scientific). The EC50 and CC50 values were calculated from best-fit dose response curves using GraphPad Prism. For plaque reduction assays, an 1.2% avicel microcrystalline cellulose (FMC BioPolymer, Philadelphia, PA) overlay was used and cells were stained after 3 days as previously described^26.

[1] = target: T1, EV-D68 2A^pro (WT-2A^pro, strain US/KY/14-18953, expressed in E. coli BL21(DE3) from pE-SUMOstar vector) (enterovirus D68, UniProt A0A097BW19); assay: FRET-based enzymatic assay of EV-D68 2A^pro inhibition (FRET substrate Dabcyl-KIRIVNT/GPGFGGE-Edans); assay type: biochemical
T1 construct: E. coli-codon-optimised gene, pE-SUMOstar, His-SUMO tag (removed with SUMO protease for nontagged form), E. coli BL21(DE3), Ni-NTA; 7JRE is the C107A mutant
Description: (§4) FIG. 4. […] Key structural variations compared to telaprevir were highlighted in red. Enzymatic inhibitory activity IC50 value was determined in the FRET-based assay. Antiviral EC50 value was determined in the CPE assay with EV-D68 US/MO/14-18947 in R.D. cells. Cytotoxicity CC50 value was determined using the neutral red uptake method in R.D. cells. The results are the mean±standard deviation of two independent experiments with three repeats in each experiment.
as §4, with “5.” for “4.”, “Jun8861” for “telaprevir”
as §1, §2, §3

[2] = CPE assay, EV-D68 US/MO/14-18947 in R.D. cells
[3] = Enterovirus D, EVD68, RD, read-out: Antiviral EC50, CPE assay, EV-D68 US/MO/14-18947 in R.D. cells

IC50 (EV-D68 2A^pro) [nM] | Compound | antiviral activity, in words, relative to the named comparator (EV-D68 US/MO/14-18947; [2]) | enzymatic inhibition, in words, relative to the named comparator (EV-D68 2A^pro) | other results
4350 | CCC[C@H](NC(=O)[C@@H]1[C@H]2CCC[C@H]2CN1C(=O)OCc1ccccc1)C(=O)C(=O)NC1CC1 [Jun7424, Benzyl (1S,3aR,6aS)-1-(((S)-1-(cyclopropylamino)-1,2-dioxohexan-3-yl)carbamoyl)hexahydrocyclopenta[c]pyrrole-2(1H)-carboxylate] |  |  | 
 | CC(C)(C)[C@H](NC(=O)CC12CC3CC(CC(C3)C1)C2)C(=O)N1C[C@@H]2CCC[C@@H]2[C@H]1C(=O)N[C@@H](Cc1c[nH]c2ccccc12)C(=O)C(=O)NC1CC1 [Jun11862, (1S,3aR,6aS)-2-((S)-2-(2-((3S,5S,7S)-adamantan-1-yl)acetamido)-3,3-dimethylbutanoyl)-N—((S)-4-(cyclopropylamino)-1-(1H-indol-3-yl)-3,4-dioxobutan-2-yl)octahydrocyclopenta[c]pyrrole-1-carboxamide] | comparable enzymatic inhibition and antiviral activity as Jun11385 | comparable enzymatic inhibition and antiviral activity as Jun11385 | 
 | (1S)-2-((S)-2-(2-((3S,5S,7S)-adamantan-1-yl)acetamido)-3,3-dimethylbutanoyl)-N-((2S)-4-(cyclopropylamino)-3-hydroxy-4-oxo-1-(thiophen-3-yl)butan-2 yl)octahydrocyclopenta[c]pyrrole-1-carboxamide [Jun11818] | comparable enzymatic inhibition and antiviral activity as Jun11385 | comparable enzymatic inhibition and antiviral activity as Jun11385 | 
 | CCC[C@H](NC(=O)[C@@H]1[C@H]2CCC[C@H]2CN1C(=O)[C@@H](NC(=O)NC12CC3CC(CC(C3)C1)C2)C(C)(C)C)C(=O)C(=O)NC1CC1 [Jun1023, (1S)-2-((S)-2-(3-((3R,5R,7R)-adamantan-1-yl)ureido)-3,3-dimethylbutanoyl)-N—((S)-1-(cyclopropylamino)-1,2-dioxohexan-3-yl)octahydrocyclopenta[c]pyrrole-1-carboxamide] |  | reduced enzymatic inhibition | EC50 (EV-D68 US/MO/14-18947; CPE assay, EV-D68 US/MO/14-18947 in R.D. cells, read-out: Antiviral EC50): 700 nM
 | CC(C)C[C@H](NC(=O)[C@@H]1[C@H]2CCC[C@H]2CN1C(=O)[C@@H](NC(=O)CC12CC3CC(CC(C3)C1)C2)C(C)(C)C)C(=O)C(=O)NC1CC1 [Jun11389, (1S,3aR,6aS)-2-((S)-2-(2-((3S,5S,7S)-adamantan-1-yl)acetamido)-3,3-dimethyl-butanoyl)-N—((S)-1-(cyclopropylamino)-5-methyl-1,2-dioxohexan-3-yl)octahydro-cyclopenta[c]pyrrole-1-carboxamide] | failed to improve the antiviral potency compared to Jun8861 |  | IC50 [1]: 260 ± 50 nM
 | CC(C)[C@H](NC(=O)[C@@H]1[C@H]2CCC[C@H]2CN1C(=O)[C@@H](NC(=O)CC12CC3CC(CC(C3)C1)C2)C(C)(C)C)C(=O)C(=O)NC1CC1 [Jun11718, (1S,3aR,6aS)-2-((S)-2-(2-((3S,5S,7S)-adamantan-1-yl)acetamido)-3,3-dimethylbutanoyl)-N—((S)-1-(cyclopropylamino)-4-methyl-1,2-dioxopentan-3-yl)octahydrocyclopenta[c]pyrrole-1-carboxamide] | comparable enzymatic inhibition and antiviral activity as Jun8861 | comparable enzymatic inhibition and antiviral activity as Jun8861 | 
1160 | CCC[C@H](NC(=O)[C@@H]1[C@H]2CCC[C@H]2CN1C(=O)[C@@H](NC(=O)NC(C)(C)C)C(C)(C)C)C(=O)C(=O)NC1CC1 [Jun9475, (1S,3aR,6aS)-2-((S)-2-(3-(tert-butyl)ureido)-3,3-dimethylbutanoyl)-N—((S)-1-(cyclopropylamino)-1,2-dioxohexan-3-yl)octahydrocyclopenta[c]pyrrole-1-carboxamide] |  |  | 
 | CC(C)(C)[C@H](NC(=O)CC12CC3CC(CC(C3)C1)C2)C(=O)N1C[C@@H]2CCC[C@@H]2[C@H]1C(=O)N[C@@H](CC1CC1)C(=O)C(=O)NC1CC1 [Jun11761, (1S,3aR,6aS)-2-((S)-2-(2-((3S,5S,7S)-adamantan-1-yl)acetamido)-3,3-dimethylbutanoyl)-N—((S)-1-cyclopropyl-4-(cyclopropylamino)-3,4-dioxobutan-2-yl)octahydrocyclopenta[c]pyrrole-1-carboxamide] | failed to improve the antiviral potency compared to Jun8861 |  | IC50 [1]: 140 ± 10 nM
940 | CCC[C@H](NC(=O)[C@@H]1[C@H]2CCC[C@H]2CN1C(=O)[C@@H](NC(C)=O)C(C)(C)C)C(=O)C(=O)NC1CC1 [Jun8862, (1S,3aR,6aS)-2-((S)-2-acetamido-3,3-dimethylbutanoyl)-N—((S)-1-(cyclopropylamino)-1,2-dioxohexan-3-yl)octahydrocyclopenta[c]pyrrole-1-carboxamide] |  |  | 

Compound | IC50 (EV-D68 2A^pro) [nM] | antiviral activity, in words, relative to the named comparator (EV-D68 US/MO/14-18947; [2]) | enzymatic inhibition, in words, relative to the named comparator (EV-D68 2A^pro) | other results
CCC[C@H](NC(=O)[C@@H]1[C@H]2CCC[C@H]2CN1C(=O)[C@@H](NC(=O)CC1CCCC1)C(C)(C)C)C(=O)C(=O)NC1CC1 [Jun971, (1S,3aR,6aS)-2-((S)-2-(2-cyclopentylacetamido)-3,3-dimethylbutanoyl)-N—((S)-1-(cyclopropylamino)-1,2-dioxohexan-3-yl)octahydrocyclopenta[c]pyrrole-1-carboxamide] | 80 to 140 |  |  | EC50 (EV-D68 US/MO/14-18947; [3]): 160 to 750 nM; IC50 [1]: 100 ± 10 nM
CC(C)(C)C(NC(=O)CC12CC3CC(CC(C3)C1)C2)C(=O)N1CC2CCCC2C1C(=O)NC(Cc1ccc(F)cc1)C(=O)C(=O)NC1CC1 [Jun11763, (1S,3aR,6aS)-2-((S)-2-(2-((3S,5S,7S)-adamantan-1-yl)acetamido)-3,3-dimethylbutanoyl)-N—((S)-4-(cyclopropylamino)-1-(4-fluorophenyl)-3,4-dioxobutan-2-yl)octahydrocyclo-penta[c]pyrrole-1-carboxamide] | 150 |  |  | EC50 (EV-D68 US/MO/14-18947; [3]): 190 nM
